This note sets out measurements from patent publication US9492471B2, “Methods of treating a disease or disorder associated with Bruton'S Tyrosine Kinase” (Celgene Avilomics Research, Inc., priority 2013, dated 2016).

The term inhibition denotes the change of the read-out against control, counted positive when it falls.

Holding throughout (test): HotSpot kinase profiling
Common to all, as to assay type: biochemical

One assay has as its target T1, CK1epsilon (Homo sapiens, UniProt P49674).
T1 construct: purchased Reaction Biology Corp
The gist of the method:
(§1)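 Percent inhibition, averaged when run more than once and referenced to a DMSO negative control, came from a radioactive filter-binding readout on P81 paper. Reactions of kinase with freshly made substrate and cofactors ran for 2 h at room temperature.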

The target of a further assay is T2, CSK (Homo sapiens, UniProt P41240).
T2 construct: purchased Reaction Biology Corp
The gist of the method: as §1

For another assay, the target named is T3, GRK6 (Homo sapiens, UniProt P43250).
T3 construct: purchased Reaction Biology Corp
The gist of the method: as §1

Another assay concerns the target T4, MKK4 (Homo sapiens, UniProt P45985).
T4 construct: purchased Reaction Biology Corp
T4 sequence (P45985 1-399): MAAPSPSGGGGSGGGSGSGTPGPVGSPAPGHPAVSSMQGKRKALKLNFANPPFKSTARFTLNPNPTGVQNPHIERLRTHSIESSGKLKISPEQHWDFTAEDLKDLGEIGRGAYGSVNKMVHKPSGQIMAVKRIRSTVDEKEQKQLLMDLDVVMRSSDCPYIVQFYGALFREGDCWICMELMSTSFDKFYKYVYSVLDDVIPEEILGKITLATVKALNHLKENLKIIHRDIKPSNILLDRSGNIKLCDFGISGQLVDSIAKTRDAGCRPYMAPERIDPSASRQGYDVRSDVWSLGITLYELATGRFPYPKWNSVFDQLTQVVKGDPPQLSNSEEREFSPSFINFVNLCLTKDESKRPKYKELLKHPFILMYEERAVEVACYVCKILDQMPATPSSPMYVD
The method, boiled down:
as §1

Another assay addresses T5, MKK6 (Homo sapiens, UniProt P52564).
T5 construct: purchased Reaction Biology Corp
T5 sequence (P52564 1-334): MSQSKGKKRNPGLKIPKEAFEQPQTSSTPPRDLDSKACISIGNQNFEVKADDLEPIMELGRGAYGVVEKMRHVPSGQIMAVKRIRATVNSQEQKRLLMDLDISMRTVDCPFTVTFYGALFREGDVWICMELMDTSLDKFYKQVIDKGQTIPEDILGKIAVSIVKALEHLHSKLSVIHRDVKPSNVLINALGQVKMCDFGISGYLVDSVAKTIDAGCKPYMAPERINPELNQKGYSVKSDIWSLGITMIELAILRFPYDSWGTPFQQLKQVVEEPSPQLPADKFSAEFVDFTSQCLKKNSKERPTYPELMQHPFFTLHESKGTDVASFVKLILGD
The gist of the method: as §1

The target in the next assay is T6, PKCnu/PRKD3 (Homo sapiens, UniProt O94806).
T6 construct: purchased Reaction Biology Corp
T6 sequence (O94806 1-890): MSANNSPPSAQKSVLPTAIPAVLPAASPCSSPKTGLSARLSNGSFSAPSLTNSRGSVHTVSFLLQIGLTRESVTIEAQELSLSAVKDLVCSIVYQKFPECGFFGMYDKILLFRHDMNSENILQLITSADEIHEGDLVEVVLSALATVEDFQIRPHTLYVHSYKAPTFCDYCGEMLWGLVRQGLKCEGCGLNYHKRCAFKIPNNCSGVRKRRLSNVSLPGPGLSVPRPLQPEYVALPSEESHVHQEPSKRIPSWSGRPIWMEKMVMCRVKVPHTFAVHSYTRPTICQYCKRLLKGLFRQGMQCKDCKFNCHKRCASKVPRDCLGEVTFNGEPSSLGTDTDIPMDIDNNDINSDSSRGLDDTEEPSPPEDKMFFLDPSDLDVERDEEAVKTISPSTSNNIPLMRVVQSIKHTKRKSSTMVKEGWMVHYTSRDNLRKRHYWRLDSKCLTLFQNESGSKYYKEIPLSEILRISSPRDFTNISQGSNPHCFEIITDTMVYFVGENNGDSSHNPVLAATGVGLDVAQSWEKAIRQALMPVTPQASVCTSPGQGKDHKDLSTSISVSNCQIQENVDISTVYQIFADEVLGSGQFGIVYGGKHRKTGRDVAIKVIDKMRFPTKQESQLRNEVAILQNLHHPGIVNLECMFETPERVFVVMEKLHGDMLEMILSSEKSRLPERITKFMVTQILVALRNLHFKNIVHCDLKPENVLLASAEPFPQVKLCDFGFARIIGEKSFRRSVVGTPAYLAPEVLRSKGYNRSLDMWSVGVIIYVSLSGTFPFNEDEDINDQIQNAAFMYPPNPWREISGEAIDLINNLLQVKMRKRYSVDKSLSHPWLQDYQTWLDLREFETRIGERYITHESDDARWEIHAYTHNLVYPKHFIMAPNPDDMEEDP
The gist of the method: as §1

The target in a further assay is T7, RSK2 (Homo sapiens, UniProt P51812).
T7 construct: purchased Reaction Biology Corp
The method, boiled down:
as §1

The next assay concerns the target T8, STK32B/YANK2 (Homo sapiens, UniProt Q9NY57).
T8 construct: purchased Reaction Biology Corp
The gist of the method: as §1

Setting [1] is: read-out: % Enzyme Activity (relative to DMSO controls) Run 1.
[2] abbreviates: read-out: % Enzyme Activity (relative to DMSO controls) Run 2.

Where two headings read alike, the source gives them in different places.

T7 sequence (P51812 whole entry): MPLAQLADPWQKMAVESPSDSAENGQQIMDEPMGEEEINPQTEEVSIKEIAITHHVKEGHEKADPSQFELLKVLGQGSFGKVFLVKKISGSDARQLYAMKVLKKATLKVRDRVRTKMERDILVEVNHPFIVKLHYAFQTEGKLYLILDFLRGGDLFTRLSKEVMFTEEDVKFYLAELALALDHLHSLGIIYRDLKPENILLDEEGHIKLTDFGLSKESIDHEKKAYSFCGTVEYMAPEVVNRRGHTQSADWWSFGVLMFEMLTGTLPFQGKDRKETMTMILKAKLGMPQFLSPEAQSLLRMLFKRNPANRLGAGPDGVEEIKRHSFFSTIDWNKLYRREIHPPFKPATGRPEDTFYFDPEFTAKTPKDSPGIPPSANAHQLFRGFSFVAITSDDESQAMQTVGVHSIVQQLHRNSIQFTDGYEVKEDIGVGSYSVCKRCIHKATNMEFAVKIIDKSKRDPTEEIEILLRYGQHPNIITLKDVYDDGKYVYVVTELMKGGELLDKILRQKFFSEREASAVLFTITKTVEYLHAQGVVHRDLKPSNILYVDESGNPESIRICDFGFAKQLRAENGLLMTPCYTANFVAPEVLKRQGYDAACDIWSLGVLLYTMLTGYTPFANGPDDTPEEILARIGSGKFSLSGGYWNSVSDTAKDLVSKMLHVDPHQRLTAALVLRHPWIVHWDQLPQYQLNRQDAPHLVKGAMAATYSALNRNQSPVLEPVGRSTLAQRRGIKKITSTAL
T1 sequence (P49674 whole entry): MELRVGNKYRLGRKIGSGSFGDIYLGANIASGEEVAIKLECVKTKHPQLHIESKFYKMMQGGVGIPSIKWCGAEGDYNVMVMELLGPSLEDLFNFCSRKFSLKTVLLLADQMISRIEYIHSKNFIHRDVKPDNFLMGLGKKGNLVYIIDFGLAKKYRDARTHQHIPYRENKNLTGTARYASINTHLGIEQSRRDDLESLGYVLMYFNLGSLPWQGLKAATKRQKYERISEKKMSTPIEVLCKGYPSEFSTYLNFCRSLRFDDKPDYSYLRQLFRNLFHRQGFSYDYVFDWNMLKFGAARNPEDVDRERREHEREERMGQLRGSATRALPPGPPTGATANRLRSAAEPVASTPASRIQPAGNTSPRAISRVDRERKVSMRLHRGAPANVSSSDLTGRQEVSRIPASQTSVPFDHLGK
T8 sequence (Q9NY57 whole entry): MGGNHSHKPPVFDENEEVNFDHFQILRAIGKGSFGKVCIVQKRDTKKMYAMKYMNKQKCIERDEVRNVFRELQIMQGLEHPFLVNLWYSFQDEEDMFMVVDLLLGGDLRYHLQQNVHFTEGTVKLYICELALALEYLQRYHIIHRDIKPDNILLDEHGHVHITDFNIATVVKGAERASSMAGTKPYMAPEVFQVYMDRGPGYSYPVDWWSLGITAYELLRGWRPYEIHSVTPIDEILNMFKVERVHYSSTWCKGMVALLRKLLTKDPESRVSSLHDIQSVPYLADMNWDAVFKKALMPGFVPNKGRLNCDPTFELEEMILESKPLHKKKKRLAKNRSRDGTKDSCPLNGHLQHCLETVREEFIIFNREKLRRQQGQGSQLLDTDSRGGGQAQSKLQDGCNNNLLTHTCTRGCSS
T2 sequence (P41240 whole entry): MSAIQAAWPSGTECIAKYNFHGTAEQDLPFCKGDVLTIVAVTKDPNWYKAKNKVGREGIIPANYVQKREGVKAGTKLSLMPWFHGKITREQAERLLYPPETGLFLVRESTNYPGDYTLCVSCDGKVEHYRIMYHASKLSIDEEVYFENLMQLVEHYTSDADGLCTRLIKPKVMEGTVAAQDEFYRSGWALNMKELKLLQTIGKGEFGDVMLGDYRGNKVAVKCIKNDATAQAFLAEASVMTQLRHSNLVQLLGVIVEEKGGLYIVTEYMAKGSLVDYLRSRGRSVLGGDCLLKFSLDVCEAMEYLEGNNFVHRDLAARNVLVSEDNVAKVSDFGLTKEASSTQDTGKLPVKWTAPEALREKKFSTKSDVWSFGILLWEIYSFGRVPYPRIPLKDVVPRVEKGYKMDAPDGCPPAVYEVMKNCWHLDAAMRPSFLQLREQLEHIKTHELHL
T3 sequence (P43250 whole entry): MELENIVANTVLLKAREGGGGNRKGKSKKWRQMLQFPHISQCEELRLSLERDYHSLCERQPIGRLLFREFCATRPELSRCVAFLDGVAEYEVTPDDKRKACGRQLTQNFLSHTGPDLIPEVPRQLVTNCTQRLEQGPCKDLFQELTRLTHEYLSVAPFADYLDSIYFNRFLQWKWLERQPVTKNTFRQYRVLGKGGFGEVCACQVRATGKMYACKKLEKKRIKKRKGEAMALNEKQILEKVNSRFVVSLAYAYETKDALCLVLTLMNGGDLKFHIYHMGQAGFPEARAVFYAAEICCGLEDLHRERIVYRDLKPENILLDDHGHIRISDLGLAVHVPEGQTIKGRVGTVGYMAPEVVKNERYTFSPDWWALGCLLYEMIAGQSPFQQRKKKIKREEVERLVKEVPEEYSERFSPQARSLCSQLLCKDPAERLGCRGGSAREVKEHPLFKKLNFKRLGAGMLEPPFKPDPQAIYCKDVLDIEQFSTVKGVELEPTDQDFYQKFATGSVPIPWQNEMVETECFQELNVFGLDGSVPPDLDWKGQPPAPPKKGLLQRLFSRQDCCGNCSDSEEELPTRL

In the case of `C=CC(=O)Nc1cccc(Nc2nc(Nc3ccc(OCCOC)c(F)c3)ncc2F)c1` [Compound 2], the inhibition at 3 µM against CK1epsilon was -1.96%; against CSK it was 18.2%; at GRK6, -3.03%; at MKK4, -16.6%; at MKK6, 3.11%; against PKCnu/PRKD3 it was 20.1%. Further, the inhibition at 3 µM against RSK2 was 16.6%; against STK32B/YANK2, 5.3%. Moreover, the remaining activity at 3 µM at CK1epsilon (setting [1]) is 102%; at CK1epsilon (setting [2]), 102%; on CSK (setting [1]), 81.7%; on CSK (setting [2]), 81.8%; on GRK6 (setting [1]), 102%; on GRK6 (setting [2]), 104%. The remaining activity at 3 µM worked out at 117% on MKK4 (setting [1]); 116% on MKK4 (setting [2]); 96.4% on MKK6 (setting [1]); 97.4% at MKK6 (setting [2]); 80.1% on PKCnu/PRKD3 (setting [1]); 79.8% at PKCnu/PRKD3 (setting [2]). Besides, the remaining activity at 3 µM worked out at 82.6% at RSK2 (setting [1]), 84.3% at RSK2 (setting [2]), 95.8% on STK32B/YANK2 (setting [1]) and 93.6% at STK32B/YANK2 (setting [2]).
